Assay results published in patent publication US10827945B2, “Radiologically identified tumor habitats” (H. LEE MOFFITT CANCER CENTER AND RESEARCH INSTITUTE, INC., priority 2014, dated 2020).

Key:
[1] = test system: soft tissue sarcomas (STS); details: across all histological sub-types of STS; cited from earlier work
[2] = test system: orthotopically implanted MiaPaCa2 PDAC cells; test: DCE-MRI/diffusion MRI in orthotopically implanted MiaPaCa2 PDAC; assay type: in vivo; details: orthotopic MiaPaCa2
Source text: (§1) In a parallel study, DCE-MRI and Diffusion MRI were investigated as response biomarkers to TH-302 in flank implanted MiaPaCa2 pancreatic adenocarcinoma (PDAC) models. […] 2012 30(7):1002-9]. In a follow-on study, orthotopically implanted Hs766t, MiaPaCa2 and Su.86.86 PDAC cells were used, which have differential sensitivities to TH-302 as monotherapy.

[3] = test system: orthotopically implanted Hs766t PDAC cells; test: DCE-MRI/diffusion MRI in orthotopically implanted Hs766t PDAC; assay type: in vivo; details: orthotopic Hs766t
Source text: as §1

[4] = based on phase I data; cited from earlier work
[5] = test system: orthotopically implanted Su.86.86 PDAC cells; test: DCE-MRI/diffusion MRI in orthotopically implanted Su.86.86 PDAC; assay type: in vivo; details: orthotopic Su.86.86
Source text: as §1

[6] = test system: flank implanted MiaPaCa2 pancreatic adenocarcinoma (PDAC); details: cited from earlier work
[7] = test system: regions of profound hypoxia; details: cited from earlier work
[8] = test system: osteosarcoma xenotransplants; test: Osteosarcoma xenotransplant models, ADC (diffusion MRI) and tumor response; assay type: in vivo, mouse; details: for anti-tumor response: osteosarcoma xenotransplants; for shift of ADC histograms: within 48 hr following treatment
Source text: Combined MRI and histology image analyses were used to examine effects of dasatinib+Tcn in a Ewings sarcoma model; and the response to a novel Wee-1 checkpoint inhibitor, MK1775, alone and in combination with gemcitabine in osteosarcoma xenotransplants [Kreahling J M, et al. Mol Cancer Ther. 2012 11(1):174-82; Kreahling J M, et al. PloS one. 2013 8(3):e57523]. In the Ewing's model, the pre-therapy spin-echo T2 and post-therapy response of ADC were compared to tumor volume changes.
In the osteosarcoma xenotransplant models, the change in ADC was measured following treatment with gemcitabine and the wee-1 inhibitor MK-1775, alone and in combination. […] The change in ADC was highly correlated with tumor growth rate response. Also, the shapes of the histograms changed with response, going from Gaussian to a log-normal distributions, with increased skewness.
At a deeper level of analysis, the ADC maps were analyzed for image entropy, which is calculated as the randomness of a 3×3 pixel matrix surrounding the pixel under test (P-U-T).

[9] = test system: tumors in KPC mice; details: KPC (KrasG12D; p53R172H; Pdx1-Cre) GEMM; cited from earlier work

SMILES: COc1cccc2c1C(=O)c1c(O)c3c(c(O)c1C2=O)C[C@@](O)(C(=O)CO)C[C@@H]3O[C@H]1C[C@H](N)[C@H](O)[C@H](C)O1 [DOX, doxorubicin]
- response rate [1]: 25-40%

SMILES: Cn1c(COP(=O)(NCCBr)NCCBr)cnc1[N+](=O)[O-] [TH-302]
- Ktrans in response to treatment [2]: decreases
- mean ADC [2]: no changes
- sensitivity as monotherapy [2]: responsive
- Ktrans in response to treatment [3]: decreases
- mean ADC [3]: no changes
- sensitivity as monotherapy [3]: responsive
- tolerability [4]: well-tolerated
- Ktrans in response to treatment [5]: not
- mean ADC [5]: no changes
- sensitivity as monotherapy [5]: resistant
- ADC (diffusion MRI) ([6]; at any time point): no differences
- Ktrans (DCE-MRI) ([6]; initial change, strongly correlated with tumor control): drop
- pO2 at which the warhead is released [7]: < 10 mm Hg

SMILES: C=CCn1c(=O)c2cnc(Nc3ccc(N4CCN(C)CC4)cc3)nc2n1-c1cccc(C(C)(C)O)n1 [MK-1775]
- anti-tumor response [8]: non-responsive
- anti-tumor response ([8]; listed as MK1775): did not
- shift of ADC histograms [8]: not

SMILES: Nc1ccn([C@@H]2O[C@H](CO)[C@@H](O)C2(F)F)c(=O)n1 [gemcitabine]
- change in average ADC-entropy values from pre-treatment ([8]; compared to controls (p=0.022) and MK1775 (p=0.023)): statistically larger variations in ADC values
- anti-tumor response [8]: robust anti-tumor response
- anti-tumor response ([8]; listed as Gem): responded to therapy
- shift of ADC histograms [8]: shifted to the right
- sensitivity of tumors [9]: generally resistant
